# Data: PubChem BioAssay AID687005 (Broad Institute, 2013)
# Results filed as inconclusive are left out. Calls of active or inactive are those of the source.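 How the source made its calls: active means Compounds that reduce signal, with fitted half-maximal dose at or under twice the top valid tested dose; inconclusive means Poor fit, or flat curve losing 30 to 70% of signal; inactive means Potency past limit, flat within 30%, or opposite direction.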
# Assay: viability loss in HEK293T cells – cell-based, ATP luminescence, cherry-pick samples, cytotoxicity control, dose response (AID 687005)
# Details: HEK293T viability, ATP luminescence (CellTiter-Glo), 48 h; at 23.5 µM (top of the series)
row,Structure (SMILES),"activity change, negative = cytotoxicity"
1,COc1ccc(NC(=O)N(C)C[C@@H]2OCCCC[C@@H](C)Oc3ccc(NC(=O)Nc4ccc5c(c4)OCO5)cc3C(=O)N([C@@H](C)CO)C[C@H]2C)cc1,-17% (inactive)
2,C/C=C/c1ccc([C@H]2[C@@H](CO)N(C(=O)CC)[C@@H]2CNC(=O)C2CC2)cc1,42.4% (inactive)
3,O=C(C[C@H]1C[C@H]2c3cc(NC(=O)C4CCC4)ccc3O[C@H]2[C@@H](CO)O1)NCc1cccc(F)c1,-5.36% (inactive)
4,C[C@H](CO)N1C[C@H](C)[C@H](CN(C)C(=O)Nc2ccc3c(c2)OCO3)Oc2ncc(C#CC(C)(C)O)cc2C1=O,-10.7% (inactive)
5,C[C@H]1CN([C@@H](C)CO)C(=O)Cc2cc(NC(=O)Nc3ccccc3)ccc2O[C@@H]1CN(C)C(=O)Nc1ccc2c(c1)OCO2,-18.7% (inactive)
6,N#Cc1ccc(-c2ccc3c(c2)[C@@H]2[C@@H](CCN2C(=O)Cc2ccccc2)[C@@H](CO)N3)cc1,-19.6% (inactive)
7,C[C@@H]1CN([C@H](C)CO)C(=O)c2cc(NS(=O)(=O)c3ccccc3)ccc2O[C@H]1CN(C)C(=O)NC1CCCCC1,-10.5% (inactive)
8,CCCNC(=O)C[C@@H]1CC[C@@H]2[C@@H](COc3ccc(NC(=O)CCC)cc3C(=O)N2C)O1,9.04% (inactive)
9,COCC(=O)N1C[C@H](C)[C@@H](OC)CN(C)C(=O)c2ccc(NS(C)(=O)=O)cc2OC[C@@H]1C,17.4% (inactive)
10,Cc1noc(C)c1NC(=O)N(C)C[C@H]1OCCCC[C@H](C)Oc2ccc(NC(=O)NC(C)C)cc2C(=O)N([C@@H](C)CO)C[C@@H]1C,68% (inactive)
11,Cc1noc(C)c1NC(=O)Nc1ccc2c(c1)C(=O)N(C)[C@H]1CC[C@H](CC(=O)N[C@H]3CCN(Cc4ccccc4)C3)O[C@H]1CO2,-3.29% (inactive)
12,CC(C)NC(=O)Nc1ccc2c(c1)CC(=O)N([C@@H](C)CO)C[C@H](C)[C@H](CN(C)Cc1ccc3c(c1)OCO3)O2,26.2% (inactive)

# Same assay, conditions: HEK293T viability, ATP luminescence (CellTiter-Glo), 48 h; at 26 µM (top of the series)
row,Structure (SMILES),"activity change, negative = cytotoxicity"
1,Cc1ccccc1NC(=O)C(NC1CCCCC1)C(C)C (centres undefined),-12.2% (inactive)
2,CC(C)C#Cc1ccc2c(c1)O[C@H](CN(C)C(=O)Cc1ccccn1)[C@H](C)CN([C@H](C)CO)S2(=O)=O,-25.6% (inactive)
3,C[C@H](CO)N1C[C@H](C)[C@@H](CN(C)Cc2ccncc2)Oc2ccc(NC(=O)CCC(F)(F)F)cc2C1=O,-2.07% (inactive)
4,O=C(Cc1ccccc1)N[C@H]1C=C[C@@H](CC(=O)N2CCOCC2)O[C@H]1CO,8.54% (inactive)
5,CC(C)NC(=O)N(C)C[C@@H]1OCCCC[C@H](C)Oc2ccc(NC(=O)c3ccccc3)cc2C(=O)N([C@H](C)CO)C[C@H]1C,-12.5% (inactive)
6,O=C(c1cc(Br)ccc1Cl)N1CCN(c2ccccn2)CC1,-6.43% (inactive)
7,COc1ccc(S(=O)(=O)Nc2ccc3c(c2)C(=O)N([C@@H](C)CO)C[C@H](C)[C@@H](CN(C)C)OCCCC[C@H](C)O3)cc1,-9.62% (inactive)
8,CNC(=O)CN(c1ccc(OC)cc1)S(=O)(=O)c1ccc(F)cc1,31.6% (inactive)
9,COc1cccc(-c2cn(CC[C@@H]3CC[C@H](NC(C)=O)[C@@H](CO)O3)nn2)c1,8.26% (inactive)
10,COC(=O)C1=C(C)N(Cc2ccc(F)cc2)C(=S)NC1c1cccc(Cl)c1 (centres undefined),-1.12% (inactive)
11,COc1ccccc1NC(=S)NCc1ccc(Cl)cc1,-4.64% (inactive)
12,C=CCNC(=O)CN(c1ccc(F)cc1)S(=O)(=O)c1ccc(OC)cc1,-6.42% (inactive)
13,Cc1noc(C)c1NC(=O)Nc1cccc2c1O[C@H](CN(C)S(=O)(=O)c1cn(C)cn1)[C@H](C)CN([C@H](C)CO)C2=O,-29.5% (inactive)
14,COc1cc2c(C(=O)N(C)c3cc(Cl)ccc3OC)cn(C)c(=O)c2cc1OC,-3.77% (inactive)
15,Cc1noc(C)c1NC(=O)Nc1ccc2c(c1)C(=O)N([C@@H](C)CO)C[C@H](C)[C@H](CN(C)S(=O)(=O)c1ccc(Cl)cc1)O2,8.28% (inactive)
16,O=C(c1c(Cl)cccc1Cl)N1CCN(c2ccccn2)CC1,-3.99% (inactive)
17,CC(=O)c1sc(NC(=O)c2cc(-c3ccccc3)nn2-c2ccccc2)nc1C,38.5% (inactive)
18,CC(C)C#Cc1ccc([C@@H]2[C@H](CO)N3CCCCN(C(=O)c4ccc5c(c4)OCO5)C[C@@H]23)cc1,28.2% (inactive)
19,CC(C)NC(=O)Nc1ccc2c(c1)CC(=O)N([C@@H](C)CO)C[C@@H](C)[C@@H](CN(C)S(=O)(=O)c1ccc(Cl)cc1)O2,6.41% (inactive)
20,Cc1ccc(S(=O)(=O)N[C@H]2CC[C@H](CC(=O)NCc3ccccc3F)O[C@H]2CO)cc1,8.09% (inactive)
21,C[C@@H]1CN([C@@H](C)CO)C(=O)c2cccc(NC(=O)Nc3ccccc3)c2O[C@H]1CN(C)S(=O)(=O)c1cn(C)cn1,55.5% (inactive)
22,Cc1cc(C(=O)Nc2cccc3c2O[C@H](CN(C)S(=O)(=O)c2ccccc2)[C@H](C)CN([C@H](C)CO)C3=O)n(C)n1,16.8% (inactive)
23,Cc1ccc(OCCn2c(=S)[nH]c3ccccc32)c(C(C)C)c1,-49.7% (inactive)
24,O=C(C[C@H]1CC[C@H]2[C@@H](COC[C@H](O)CN2Cc2cc(F)cc(F)c2)O1)Nc1nccs1,0.29% (inactive)
25,C[C@H]1CN([C@@H](C)CO)C(=O)Cc2cc(NC(=O)CCCCCC(=O)Nc3ccccc3N)ccc2O[C@H]1CN(C)C(=O)Nc1ccccc1,-5.33% (inactive)

row,Structure (SMILES),"activity change, negative = cytotoxicity"
1,C[C@H](CO)N1C[C@H](C)[C@@H](CN(C)Cc2ccncc2)OCCCC[C@H](C)Oc2ccc(NC(=O)NC3CCCCC3)cc2C1=O,-0.008% (inactive)
2,Cc1cccc(NC(=O)CN(C)C(=O)C2CCCC2)c1C,-33.5% (inactive)
3,Cc1ccc(S(=O)(=O)N(C)C[C@H]2Oc3c(cccc3N(C)C)C(=O)N([C@@H](C)CO)C[C@H]2C)cc1,-16.9% (inactive)
4,CC=Cc1ccc2n(c1=O)C[C@H]1[C@H](CO)[C@@H](C(=O)N3CCOCC3)N(CC3CC3)[C@@H]21 (mixture of isomers),2.31% (inactive)
5,C[C@H](O)C#Cc1ccc([C@H]2[C@H](CO)N3CCCCN(CC4CCOCC4)C[C@@H]23)cc1,21.6% (inactive)
6,Cc1noc(C)c1S(=O)(=O)Nc1ccc2c(c1)C(=O)N([C@H](C)CO)C[C@@H](C)[C@H](CN(C)Cc1ccccc1)OCCCC[C@H](C)O2,-2.05% (inactive)
7,C[C@@H]1CN([C@H](C)CO)C(=O)c2cc(C#CC(C)(C)O)cnc2O[C@@H]1CN(C)Cc1cncnc1,35.1% (inactive)
8,O=C(COc1ccc2c(c1)CCC2)NCc1ccc(Cl)cc1,18.5% (inactive)
9,CO[C@@H]1CN(C)C(=O)c2ccc(NC(=O)Nc3ccccc3)cc2OC[C@H](C)N(C(C)=O)C[C@H]1C,-7.15% (inactive)
10,COCC(=O)NC[C@H]1N[C@H](CO)[C@H]1c1ccc(C2=CCCC2)cc1,-13.3% (inactive)
11,C[C@H](CO)N1C[C@H](C)[C@H](CN(C)S(=O)(=O)c2cn(C)cn2)Oc2ncc(/C=C/c3ccccc3)cc2C1=O,5.3% (inactive)
12,COc1cccc(NC(=S)NC(=O)Cc2ccc(Cl)cc2)c1,-6.68% (inactive)
13,C[C@@H]1CCCCO[C@H](CN(C)C(=O)c2ccncc2)[C@H](C)CN([C@H](C)CO)C(=O)c2cc(NC(=O)CCC(F)(F)F)ccc2O1,-23.2% (inactive)
14,CC(C)NC(=O)Nc1ccc2c(c1)C(=O)N([C@@H](C)CO)C[C@H](C)[C@@H](CN(C)S(=O)(=O)c1cccs1)OCCCC[C@H](C)O2,-17.5% (inactive)
15,CCNC(=O)Nc1ccc2c(c1)C(=O)N(C)[C@@H]1CC[C@H](CC(=O)N[C@@H](C)c3ccccc3)O[C@@H]1CO2,66.2% (inactive)
16,O=C(Nc1ccccc1)N[C@@H]1CC[C@@H](CCNC(=O)c2ccccc2F)O[C@H]1CO,-29.3% (inactive)
17,CCCNC(=O)N(C)C[C@@H]1Oc2ncc(C#CC3CCCCC3)cc2C(=O)N([C@H](C)CO)C[C@@H]1C,-14% (inactive)
18,C[C@H](CO)N1C[C@H](C)[C@@H](CN(C)C(=O)Nc2ccc3c(c2)OCO3)Oc2ccc(NS(=O)(=O)c3cccs3)cc2C1=O,-1.88% (inactive)
19,C[C@H]1CN([C@@H](C)CO)C(=O)Cc2cc(NS(=O)(=O)c3cn(C)cn3)ccc2O[C@@H]1CN(C)Cc1ccc(Oc2ccccc2)cc1,28.9% (inactive)
20,C[C@H](CO)N1C[C@H](C)[C@@H](CN(C)S(=O)(=O)c2ccccc2)Oc2c(NC(=O)Nc3cccc4ccccc34)cccc2C1=O,35.2% (inactive)
21,Cc1cc(C)c2nc(N3CCN(C(=O)c4cccs4)CC3)sc2c1,-19.8% (inactive)
22,COCC(=O)Nc1ccc2c(c1)C(=O)N(C)C[C@@H](OC)[C@H](C)CN(Cc1ccccc1)[C@@H](C)CO2,7.91% (inactive)
23,CO[C@H]1CN(C)C(=O)c2ccc(NC(C)=O)cc2OC[C@H](C)N(C(=O)c2ccncc2)C[C@@H]1C,-20% (inactive)
24,CNC[C@@H]1OCCCC[C@@H](C)Oc2ccc(NS(=O)(=O)c3ccc(Cl)cc3)cc2C(=O)N([C@H](C)CO)C[C@H]1C,-31.3% (inactive)

# Same assay, conditions: HEK293T viability, ATP luminescence (CellTiter-Glo), 48 h; at 30 µM (top of the series)
row,Structure (SMILES),"activity change, negative = cytotoxicity"
1,CNC(=O)CN(c1ccc(C)cc1)S(=O)(=O)c1ccccc1,-17.7% (inactive)

# Same assay, conditions: HEK293T viability, ATP luminescence (CellTiter-Glo), 48 h; at 42 µM (top of the series)
row,Structure (SMILES),"activity change, negative = cytotoxicity"
1,Cc1cccc(C)c1NC(=O)C1NC(=O)CC1c1ccccc1 (centres undefined),0.826% (inactive)

# Same assay, conditions: HEK293T viability, ATP luminescence (CellTiter-Glo), 48 h; at 46 µM (top of the series)
row,Structure (SMILES),"activity change, negative = cytotoxicity"
1,CCCC(=O)N1CCC1(C)C(=O)Nc1ccc(C)cc1 (centres undefined),-12.7% (inactive)
